Experimental data as given in PMC8698672, “Selective Anticancer and Antimicrobial Metallodrugs Based on Gold(III) Dithiocarbamate Complexes” (Biomedicines, 2021).

What was measured:
[1] = n-octanol/water partition coefficient, shake-flask method; type: physicochemical; settings: n-octanol / buffered saline pH 7.4, shake-flask
Procedure: The n-octanol/water coefficient of the complexes was determined using the shake-flask method previously described. Buffered-saline distilled water (100 mL, phosphate buffer PO4^3− = 10 mM, (NaCl = 0.15 M, pH 7.4) and n-octanol (100 mL) were shaken together for 72 h to allow the saturation of both phases. Approximately 1 mg of the complexes was dissolved in 5 mL of the aqueous phase, and 5 mL of the organic phase was added, mixing for 10 min. The resulting emulsion was centrifuged to separate the phases. The concentration of the compounds in each phase was determined using UV−Vis absorbance spectroscopy. Log P7.4 was calculated as log (Absorganic/Absaqueous).
Biodistribution studies should be conducted to evaluate whether our complexes could reach their pharmacological target. The potential biodistribution of our complexes was evaluated by the measure of the partition coefficient. This parameter indicates how balanced the lipo- and hydrophilicity of the compounds are. Good equilibrium between these two properties is crucial for proper distribution inside the organism. The bloodstream is aqueous in nature, so hydrophilicity is needed for drug delivery, but too-high hydrophilicity can hinder the penetration of biological membranes. Of course, high lipophilicity behavior can hinder biomedical applications related to a good distribution profile. The chosen method to measure the partition coefficient (Log Pow) was the shake-flask technique, with ideal values in the range of −1 ≤ Log P ow ≤ 3. However, for a greater oral and intestinal absorption, a more restricted range has values around 1.35–1.80 [57]. Table 2 collects all of the obtained Log Pow values, and it can be seen that, although only complex [Au(ppy)(dedtc)]PF6 (C4) satisfied this restricted range, all of them presented acceptable values of Log Pow.

Candida albicans (Ca) = test: Antifungal MIC assay (CO-ADD); type: cell-based; settings: 36 h, 35 °C, inhibition ≥ 80%
Procedure: (§1) The antimicrobial assays were performed according to the protocols of the Community for Open Antimicrobial Drug Discovery (CO-ADD). […] All the sample preparation was done using liquid-handling robots.
The antifungal activity of all synthesized complexes was evaluated in two different fungi, Candida albicans (Ca) and Cryptococcus neoformans (Cn). Fungi strains were cultured for 3 days on yeast extract–peptone–dextrose (YPD) agar at 30 °C. A yeast suspension of 1 × 10^6 to 5 × 10^6 CFU/mL (as determined by OD530) was prepared from five colonies. The suspension was subsequently diluted and added to each well of the complex-containing plates, giving a final cell density of fungus suspension of 2.5 × 10^3 CFU/mL and a total volume of 50 μL. All plates were covered and incubated at 35 °C for 36 h without shaking. […] The absorbance was measured using a Biotek Multiflo Synergy HTX plate reader (Winooski, VT, USA). In both cases, the percentage of growth inhibition was calculated for each well, using the negative control (media only) and positive control (fungi without inhibitors) on the same plate. […] Due to a higher variance in growth and inhibition, a lower threshold was applied to the data for C. neoformans.

[2] = test system: methicillin-resistant Staphylococcus aureus (Sa); type: cell-based; settings: 18 h, 37 °C, inhibition ≥ 80%
Procedure: The antimicrobial assays were performed according to the protocols of the Community for Open Antimicrobial Drug Discovery (CO-ADD). C1–6 were prepared in DMSO and water to a final testing concentration of 32 μg/mL and serially diluted 1:2-fold 8 times. Each sample concentration was prepared in 384-well plates, non-binding surface plate (NBS; Corning 3640) for each bacterial/fungal strain, all in duplicate (n = 2), and keeping the final DMSO concentration to a maximum of 0.5%. All the sample preparation was done using liquid-handling robots.
(§2) The antibacterial activity of all synthesized complexes was evaluated in five different pathogenic bacteria, including methicillin-resistant Staphylococcus aureus (Sa), Escherichia coli (Ec), Klebsiella pneumonia (Kp), Psedomonas aeruginosa (Pa), and Acinetobacter baumannii (Ab). All bacteria were cultured in cation-adjusted Mueller Hinton Broth (CAMHB) at 37 °C overnight. A sample of each culture was then diluted 40-fold in fresh broth and incubated at 37 °C for 1.5–3 h. The resultant mid-log phase cultures were diluted (CFU/mL measured by OD600), then added to each well of the complexes containing plates, giving a cell density of 5 × 10^5 CFU/mL and a total volume of 50 μL. All the plates were covered and incubated at 37 °C for 18 h without shaking. The inhibition of bacterial growth was determined by measuring the absorbance at 600 nm (OD600) using a Tecan M1000 Pro monochromator plate reader (Männedorf, Switzerland). The percentage of growth inhibition was calculated for each well, using the negative control (media only) and positive control (bacteria without inhibitors) on the same plate as references. […]

Caco-2/TC7 normal cells = test: MTT cell viability, normal (differentiated) Caco-2/TC7 cells (15 days after seeding); type: cell-based, human; settings: Caco-2/TC7, 15 days after seeding, 72 h incubation
Procedure: (§3) This study was conducted in the human enterocyte-like cell line Caco-2/TC7 [44]. This cell line undergoes a process of spontaneous differentiation in culture that leads to the formation of a monolayer of cells, expressing the morphological and functional characteristics of the mature enterocytes. This differentiation process is growth-dependent, where the cells undergo differentiation from “undifferentiated proliferative crypt-type cells” in the exponential phase of growth, to “differentiated enterocyte-type cells” in the stationary phase. The cell culture of Caco-2/TC7 cells (passages 30–50) was performed according to a previously reported method.
(§4) Cell survival was measured using the MTT test. The assay depends on the cellular reduction of 3-(4,5-dimethylthiazol-2-yl)-2,5-diphenyltetrazolium bromide (MTT, Sigma-Aldrich, Madrid, Spain) by the mitochondrial dehydrogenase of viable cells to a blue formazan product that can be measured spectrophotometrically, as previously described.
(§5) The in vitro cytotoxic effect was evaluated on human colon cancer cell line Caco-2/TC7. This particular cell line presents a huge advantage for toxicity studies because of its spontaneous enterocytic-like differentiation when confluence is reached. Therefore, Caco-2 cells become polarized cells expressing apical and basolateral surfaces with well-established tight junctions. Thus, cells present noncarcinogenic behavior in the confluence and the cytotoxic effect of our complexes can be performed on differentiated cells to evaluate the selectivity toward tumor cells. For the antiproliferative studies, MTT assay was performed after 72 h of exposure to different concentrations of the complexes at two different stages of confluence, five days to evaluate the effect on tumor cells (Figure S7) and 15 days for normal cells (Figure S8).

Caco-2/TC7 tumor cells = test: MTT cell viability, tumor Caco-2/TC7 cells (5 days after seeding); type: cell-based, human; settings: for IC50: Caco-2/TC7, 5 days after seeding, 72 h incubation, MTT; for Tumor Cells Selectivity over Normal Cells: ratio of IC50 normal / tumor Caco-2/TC7 cells
Procedure: as §3, §4, §5

[3] = test system: Acinetobacter baumannii (Ab); test: Antibacterial MIC assay (CO-ADD); type: cell-based; settings: 18 h, 37 °C, inhibition ≥ 80%
Procedure: as §1, §2

Escherichia coli (Ec) = test: Antibacterial MIC assay (CO-ADD); type: cell-based; settings: 18 h, 37 °C, inhibition ≥ 80%
Procedure: as §1, §2

[4] = test system: Psedomonas aeruginosa (Pa); test: Antibacterial MIC assay (CO-ADD); type: cell-based; settings: 18 h, 37 °C, inhibition ≥ 80%
Procedure: as §1, §2

| Compound | Log Pow [1] | MIC Ca (Candida albicans (Ca)) | MIC Sa [2] | IC50 (Caco-2/TC7 normal cells) | IC50 (Caco-2/TC7 tumor cells) | Tumor Cells Selectivity over Normal Cells (Caco-2/TC7 tumor cells) | MIC Ab [3] | MIC Ec (Escherichia coli (Ec)) | MIC Pa [4] |
| --- | --- | --- | --- | --- | --- | --- | --- | --- | --- |
| [Au(ppy)(dedtc)]PF6 [Complex C4] | 1.57 | 32 µg/mL | ≤0.25 µg/mL | 16.79 ± 0.13 µM | 2.47 ± 0.25 µM | 6.8-fold | >32 µg/mL | 32 µg/mL | >32 µg/mL |
| Cc1ccc(-c2ccccn2)[c]([Au+][S]C(=S)N(C)C)c1.F[P-](F)(F)(F)(F)F [Complex C1, [Au(tpy)(dmdtc)] PF6] | 0.61 | >32 µg/mL | ≤0.25 µg/mL | 23.03 ± 0.06 µM | 5.11 ± 0.12 µM | 4.5-fold | >32 µg/mL | 32 µg/mL | >32 µg/mL |
| Cc1ccc2[c](c1)[Au-]1([S]C(N(Cc3ccccc3)Cc3ccccc3)=[S+]1)[n+]1ccccc1-2.F[P-](F)(F)(F)(F)F (centres unmarked) [Complex C5, [Au(tpy)(dbdtc)]PF6] | 0.89 | 32 µg/mL | 32 µg/mL | > 100 µM | 2.07 ± 0.11 µM | – | >32 µg/mL | >32 µg/mL | >32 µg/mL |
| CN(C)C(=S)[S][Au+][c]1ccccc1-c1ccccn1.F[P-](F)(F)(F)(F)F [Complex C2, [Au(ppy)(dmdtc)]PF6] | 1.11 | 32 µg/mL | ≤0.25 µg/mL | 15.69 ± 0.06 µM | 1.79 ± 0.12 µM | 8.8-fold | 32 µg/mL | 32 µg/mL | >32 µg/mL |
| F[P-](F)(F)(F)(F)F.S=C([S][Au+][c]1ccccc1-c1ccccn1)N(Cc1ccccc1)Cc1ccccc1 [Complex C6, [Au(ppy)(dbdtc)]PF6] | 1.00 | 4 µg/mL | 4 µg/mL | 24.7 ± 0.36 µM | 4.02 ± 0.3 µM | 6.2-fold | 32 µg/mL | >32 µg/mL | >32 µg/mL |
| CCN(CC)C(=S)[S][Au+][c]1cc(C)ccc1-c1ccccn1.F[P-](F)(F)(F)(F)F [Complex C3, [Au(tpy)(dedtc)]PF6] | 1.17 | >32 µg/mL | ≤0.25 µg/mL | 12.95 ± 0.11 µM | 1.85 ± 0.36 µM | 7.0-fold | >32 µg/mL | 32 µg/mL | >32 µg/mL |
